BigSolDB 2.1

## CCn1nc(C(=O)O)c(=O)c2cc3c(cc21)OCO3
In ethanol, 300.2 K
  solubility (mole fraction): 5e-05
In ethanol, 303.1 K
  solubility (mole fraction): 6e-05
In ethanol, 311.4 K
  solubility (mole fraction): 8e-05
In ethanol, 315.1 K
  solubility (mole fraction): 0.0001
In ethanol, 319.5 K
  solubility (mole fraction): 0.00011
In ethanol, 321.6 K
  solubility (mole fraction): 0.00013
In ethanol, 325.6 K
  solubility (mole fraction): 0.00015
In ethanol, 329.1 K
  solubility (mole fraction): 0.00018
In ethanol, 334 K
  solubility (mole fraction): 0.0002
In ethanol, 337.2 K
  solubility (mole fraction): 0.00024
In ethanol, 339.8 K
  solubility (mole fraction): 0.00028
In ethanol, 342.8 K
  solubility (mole fraction): 0.00031
In ethanol, 345.6 K
  solubility (mole fraction): 0.00037
In water, 298.2 K
  solubility (mole fraction): 4.2e-06
In water, 303.2 K
  solubility (mole fraction): 5e-06
In water, 308.2 K
  solubility (mole fraction): 5.4e-06
In water, 313.2 K
  solubility (mole fraction): 5.9e-06
In water, 318.2 K
  solubility (mole fraction): 7.1e-06
In water, 323.2 K
  solubility (mole fraction): 9.9e-06

## CCn1cc(C(=O)O)c(=O)c2cc(F)c(N3CCNCC3)cc21
In water, 303.2 K
  solubility (mole fraction): 7.3e-06
In water, 308.2 K
  solubility (mole fraction): 9.1e-06
In water, 313.2 K
  solubility (mole fraction): 1.12e-05
In water, 318.2 K
  solubility (mole fraction): 1.37e-05
In water, 323.2 K
  solubility (mole fraction): 1.7e-05
In water, 328.2 K
  solubility (mole fraction): 2.05e-05

## CC1CCc2cc(F)cc3c(=O)c(C(=O)O)cn1c23 (stereo not given)
In ethanol, 301.9 K
  solubility (mole fraction): 0.00015
In ethanol, 309.9 K
  solubility (mole fraction): 0.00017
In ethanol, 315.2 K
  solubility (mole fraction): 0.00023
In ethanol, 320.7 K
  solubility (mole fraction): 0.00034
In ethanol, 328.7 K
  solubility (mole fraction): 0.00053
In ethanol, 331.7 K
  solubility (mole fraction): 0.00062
In ethanol, 335.5 K
  solubility (mole fraction): 0.00075
In ethanol, 339.1 K
  solubility (mole fraction): 0.00085
In ethanol, 340.5 K
  solubility (mole fraction): 0.00091
In ethanol, 342.1 K
  solubility (mole fraction): 0.00096
In ethanol, 344.2 K
  solubility (mole fraction): 0.00114
In ethanol, 345.5 K
  solubility (mole fraction): 0.0012
In water, 298.2 K
  solubility (mole fraction): 2.1e-05
In water, 303.2 K
  solubility (mole fraction): 2.3e-05
In water, 308.2 K
  solubility (mole fraction): 2.6e-05
In water, 313.2 K
  solubility (mole fraction): 2.8e-05
In water, 318.2 K
  solubility (mole fraction): 3.2e-05
In water, 323.2 K
  solubility (mole fraction): 3.8e-05

## CCn1cc(C(=O)O)c(=O)c2cc(F)c(N3CCNC(C)C3)c(F)c21.Cl (stereo not given)
In ethanol, 298.2 K
  solubility (mole fraction): 3e-05
In ethanol, 303.2 K
  solubility (mole fraction): 3.2e-05
In ethanol, 308.2 K
  solubility (mole fraction): 3.8e-05
In ethanol, 313.2 K
  solubility (mole fraction): 4.1e-05
In ethanol, 318.2 K
  solubility (mole fraction): 4.4e-05
In ethanol, 323.2 K
  solubility (mole fraction): 5e-05
In water, 296 K
  solubility (mole fraction): 0.00088
In water, 298.2 K
  solubility (mole fraction): 0.0009
In water, 311.7 K
  solubility (mole fraction): 0.00099
In water, 316.3 K
  solubility (mole fraction): 0.00104
In water, 318.9 K
  solubility (mole fraction): 0.0011
In water, 320.5 K
  solubility (mole fraction): 0.00112
In water, 328.3 K
  solubility (mole fraction): 0.00121
In water, 335.9 K
  solubility (mole fraction): 0.00129
In water, 338.7 K
  solubility (mole fraction): 0.00134
In water, 340.7 K
  solubility (mole fraction): 0.00138
In water, 344.2 K
  solubility (mole fraction): 0.00145
